In PMC4124913 (Bioorganic & medicinal chemistry, 2013):

Columns and labels:
Bcr-Abl = Bcr-Abl (Homo sapiens, UniProt P00519); assay: Bcr-Abl kinase assay; conditions: for ΔΔGbind (exptl): RT ln [IC50(cmpd)/IC50(11a)], 298 K
[1] = test system: K562 cells expressing Abl; assay: In vitro radiotracer accumulation, washout and blocking in K562 cells; type: cell-based, human; conditions: cell cultures, excess cold STI-571

Bcr-Abl, sequence (P00519 whole entry): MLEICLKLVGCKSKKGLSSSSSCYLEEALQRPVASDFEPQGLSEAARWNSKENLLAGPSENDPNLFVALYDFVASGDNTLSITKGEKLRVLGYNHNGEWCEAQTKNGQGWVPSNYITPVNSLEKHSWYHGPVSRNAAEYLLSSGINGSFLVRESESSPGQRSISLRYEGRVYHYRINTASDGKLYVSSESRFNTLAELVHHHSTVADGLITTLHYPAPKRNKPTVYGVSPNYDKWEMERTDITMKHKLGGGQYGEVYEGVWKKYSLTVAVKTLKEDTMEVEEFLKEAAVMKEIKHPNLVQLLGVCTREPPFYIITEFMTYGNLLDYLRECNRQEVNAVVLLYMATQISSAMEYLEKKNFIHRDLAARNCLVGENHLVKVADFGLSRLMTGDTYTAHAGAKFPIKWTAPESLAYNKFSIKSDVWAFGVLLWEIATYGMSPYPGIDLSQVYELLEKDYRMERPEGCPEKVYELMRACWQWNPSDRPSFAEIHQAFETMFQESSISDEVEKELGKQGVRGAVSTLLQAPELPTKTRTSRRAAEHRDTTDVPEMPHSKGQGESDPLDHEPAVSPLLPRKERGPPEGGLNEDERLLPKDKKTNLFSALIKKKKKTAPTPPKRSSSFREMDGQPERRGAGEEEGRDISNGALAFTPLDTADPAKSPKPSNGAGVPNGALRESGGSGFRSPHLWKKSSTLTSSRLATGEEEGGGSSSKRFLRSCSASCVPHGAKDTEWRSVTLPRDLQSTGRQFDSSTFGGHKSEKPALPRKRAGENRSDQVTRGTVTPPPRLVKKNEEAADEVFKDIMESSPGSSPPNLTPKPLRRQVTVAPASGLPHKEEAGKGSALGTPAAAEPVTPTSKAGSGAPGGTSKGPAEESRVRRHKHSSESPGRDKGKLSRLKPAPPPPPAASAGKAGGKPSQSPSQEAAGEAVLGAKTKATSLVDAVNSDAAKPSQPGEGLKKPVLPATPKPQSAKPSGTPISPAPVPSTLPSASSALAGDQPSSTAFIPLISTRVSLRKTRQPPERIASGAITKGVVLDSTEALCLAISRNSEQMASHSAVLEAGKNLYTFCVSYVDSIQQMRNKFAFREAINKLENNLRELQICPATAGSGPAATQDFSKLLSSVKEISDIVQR

Compound	IC50 (Bcr-Abl) [nM]	ΔΔGbind (exptl) (Bcr-Abl) [kcal/mol]	binding on addition of excess STI-571 (blocking) [1]
Cc1ccc(NC(=O)c2ccc(CN3CCN(CCF)CC3)cc2)cc1Nc1nccc(-c2cccnc2)n1 [Compound 11b]	1300	1.47	
Cc1ccc(NC(=O)c2ccc(CN3CCN(CCO)CC3)cc2)cc1Nc1nccc(-c2cccnc2)n1 [Compound 11c]		2.44	
Cc1ccc(NC(=O)c2ccc(CN3CCN(CC[18F])CC3)cc2)cc1Nc1nccc(-c2cccnc2)n1 [Compound 11g]			diminished as excess STI-571 was added
Cc1ccc(NC(=O)c2ccc(CN3CCN(Cc4ccc(I)cc4)CC3)cc2)cc1Nc1nccc(-c2cccnc2)n1 [Compound 11e]		1.10	
